Data taken from US9179674B2, “Macrocyclic picolinamide compounds with fungicidal activity” (DOW AGROSCIENCES LLC, priority 2013, dated 2015).

How the values were obtained:
Type in all cases: in vivo
[1] = tested on: Glomerella lagenarium; Anamorph: Colletotrichum lagenarium; experiment: Cucumber Anthracnose fungicidal activity (COLLLA); details: Colletotrichum orbiculare, 24 h, 1 Day Protectant, read-out: Disease Control COLLLA 1DP
Experimental: Technical grades of materials were dissolved in acetone, which were then mixed with nine volumes of water containing 110 ppm Triton X-100. The fungicide solutions were applied onto wheat seedlings using an automated booth sprayer to run-off. All sprayed plants were allowed to air dry prior to further handling. All fungicides were evaluated using the aforementioned method for their activity vs. all target diseases. Wheat leaf blotch and brown rust activity were also evaluated using track spray applications, in which case the fungicides were formulated as EC formulations, containing 0.1% Trycol 5941 in the spray solutions. Wheat plants (variety Yuma) were grown from seed in a greenhouse in 50% mineral soil/50% soil-less Metro mix until the first leaf was fully emerged, with 7-10 seedlings per pot. These plants were inoculated with an aqueous spore suspension of Septoria tritici either prior to or after fungicide treatments. After inoculation the plants were kept in 100% relative humidity (one day in a dark dew chamber followed by two to three days in a lighted dew chamber at 20° C.) to permit spores to germinate and infect the leaf. The plants were then transferred to a greenhouse set at 20° C. for disease to develop. When disease symptoms were fully expressed on the 1st leaves of untreated plants, infection levels were assessed on a scale of 0 to 100 percent disease severity. Percent disease control was calculated using the ratio of disease severity on treated plants relative to untreated plants. Evaluation of Fungicidal Activity: Cucumber Anthracnose (Glomerella lagenarium; Anamorph: Colletotrichum lagenarium; Bayer Code COLLLA) Cucumber seedlings (variety Bush Pickle) were propagated in soil-less Metro mix, with each pot having one plant, and used in the test when 12 to 14 days old. Test plants were inoculated with an aqueous spore suspension of Colletotrichum lagenarium 24 hr after fungicide treatments. After inoculation the plants were kept in a dew room at 22° C. with 100% relative humidity for 48 hr to permit spores to germinate and infect the leaf. The plants were then transferred to a growth room set at 22° C. for disease to develop. Fungicide formulation, application and disease assessment on the sprayed leaves followed the procedures as described in the Example A.

[2] = tested on: Venturia inaequalis; experiment: Apple Scab fungicidal activity (VENTIN); details: 100 ppm, 1 Day Protectant
Experimental: Technical grades of materials were dissolved in acetone, which were then mixed with nine volumes of water containing 110 ppm Triton X-100. The fungicide solutions were applied onto wheat seedlings using an automated booth sprayer to run-off. All sprayed plants were allowed to air dry prior to further handling. All fungicides were evaluated using the aforementioned method for their activity vs. all target diseases. Wheat leaf blotch and brown rust activity were also evaluated using track spray applications, in which case the fungicides were formulated as EC formulations, containing 0.1% Trycol 5941 in the spray solutions. Wheat plants (variety Yuma) were grown from seed in a greenhouse in 50% mineral soil/50% soil-less Metro mix until the first leaf was fully emerged, with 7-10 seedlings per pot. These plants were inoculated with an aqueous spore suspension of Septoria tritici either prior to or after fungicide treatments. After inoculation the plants were kept in 100% relative humidity (one day in a dark dew chamber followed by two to three days in a lighted dew chamber at 20° C.) to permit spores to germinate and infect the leaf. The plants were then transferred to a greenhouse set at 20° C. for disease to develop. When disease symptoms were fully expressed on the 1st leaves of untreated plants, infection levels were assessed on a scale of 0 to 100 percent disease severity. Percent disease control was calculated using the ratio of disease severity on treated plants relative to untreated plants. Evaluation of Fungicidal Activity: Apple Scab (Venturia inaequalis; Bayer code […]) Apple seedlings (variety McIntosh) were grown in soil-less Metro mix, with one plant per pot. Seedlings with two expanding young leaves at the top (older leaves at bottom of the plants were trimmed) were used in the test. Plants were inoculated with a spore suspension of Venturia inaequalis 24 hr after fungicide treatment and kept in a 22° C. dew chamber with 100% RH for 48 hr, and then moved to a greenhouse set at 20° C. for disease to develop. Fungicide formulation, application and disease assessment on the sprayed leaves followed the procedures as described in the Example A.

[3] = tested on: Leptosphaeria nodorum; experiment: Wheat Glume Blotch fungicidal activity (LEPTNO); details: 100 ppm, 1 Day Protectant
Experimental: Technical grades of materials were dissolved in acetone, which were then mixed with nine volumes of water containing 110 ppm Triton X-100. The fungicide solutions were applied onto wheat seedlings using an automated booth sprayer to run-off. All sprayed plants were allowed to air dry prior to further handling. All fungicides were evaluated using the aforementioned method for their activity vs. all target diseases. Wheat leaf blotch and brown rust activity were also evaluated using track spray applications, in which case the fungicides were formulated as EC formulations, containing 0.1% Trycol 5941 in the spray solutions. Wheat plants (variety Yuma) were grown from seed in a greenhouse in 50% mineral soil/50% soil-less Metro mix until the first leaf was fully emerged, with 7-10 seedlings per pot. These plants were inoculated with an aqueous spore suspension of Septoria tritici either prior to or after fungicide treatments. After inoculation the plants were kept in 100% relative humidity (one day in a dark dew chamber followed by two to three days in a lighted dew chamber at 20° C.) to permit spores to germinate and infect the leaf. The plants were then transferred to a greenhouse set at 20° C. for disease to develop. When disease symptoms were fully expressed on the 1st leaves of untreated plants, infection levels were assessed on a scale of 0 to 100 percent disease severity. Percent disease control was calculated using the ratio of disease severity on treated plants relative to untreated plants. Evaluation of Fungicidal Activity: Wheat Glume Blotch (Leptosphaeria nodorum; Bayer code […]) Wheat plants (variety Yuma) were grown from seed in a greenhouse in 50% mineral soil/50% soil-less Metro mix until the first leaf was fully emerged, with 7-10 seedlings per pot. These plants were inoculated with an aqueous spore suspension of Leptosphaeria nodorum 24 hr after fungicide treatments. After inoculation the plants were kept in 100% relative humidity (one day in a dark dew chamber followed by two days in a lighted dew chamber at 20° C.) to permit spores to germinate and infect the leaf. The plants were then transferred to a greenhouse set at 20° C. for disease to develop. Fungicide formulation, application and disease assessment followed the procedures as described in the Example A.

`COc1ccnc(C(=O)N[C@H]2COC[C@H](CC(F)(F)F)[C@@H](OC3CCCC3)[C@H](C)OC2=O)c1OCOC(C)=O` [Compound F105] gave a pest or weed control at 100 ppm [1] of 80 to 100%.
With `COc1ccnc(C(=O)N[C@H]2COC[C@H](CC3CCCC3)[C@@H](OC(=O)C(C)C)[C@H](C)OC2=O)c1OCOC(C)=O` [Compound F114] the pest or weed control at 100 ppm [1] was 80 to 100% and the “Disease Control VENTIN 1DP” value [2] was “A (80-100)”.
In the case of `COc1ccnc(C(=O)N[C@H]2COC[C@H](Cc3ccc(C)cc3)[C@@H](OCC(C)C)[C@H](C)OC2=O)c1OCOC(C)=O` [Compound F117], the pest or weed control at 100 ppm [1] is reported as 80 to 100%, the “Disease Control VENTIN 1DP” value [2] is reported as “A (80-100)” and the “Disease Control LEPTNO 1DP” value [3] is reported as “A (80-100)”.
For `CCCCCO[C@@H]1[C@@H](Cc2ccc(Cl)cc2Cl)COC[C@H](NC(=O)c2nccc(OC)c2OC(=O)CCOC)C(=O)O[C@H]1C` [Compound F123], the pest or weed control at 100 ppm [1] was 80 to 100%, the “Disease Control VENTIN 1DP” value [2] was “B (More than 0-Less than 80)” and the “Disease Control LEPTNO 1DP” value [3] was “A (80-100)”.
In the case of `COc1ccnc(C(=O)N[C@H]2COC[C@H](Cc3ccc(F)cc3)[C@@H](OCC(C)C)[C@H](C)OC2=O)c1OCOC(C)=O` [Compound F96], the pest or weed control at 100 ppm [1] is reported as 80 to 100% and the “Disease Control LEPTNO 1DP” value [3] is reported as “A (80-100)”.
`COc1ccnc(C(=O)N[C@H]2COC[C@H](Cc3ccc(C)cc3)[C@@H](OCC(C)C)[C@H](C)OC2=O)c1OC(C)=O` [Compound F80] was tested, and the pest or weed control at 100 ppm [1] was 80 to 100%, the “Disease Control VENTIN 1DP” value [2] was “B (More than 0-Less than 80)” and the “Disease Control LEPTNO 1DP” value [3] was “A (80-100)”.
For `COc1ccnc(C(=O)N[C@H]2COC[C@H](CCc3ccccc3)[C@@H](OCC(C)C)[C@H](C)OC2=O)c1OCOC(C)=O` [Compound F82], the pest or weed control at 100 ppm [1] was 80 to 100%.
In the case of `COc1ccnc(C(=O)N[C@H]2COC[C@H](Cc3cccc4ccccc34)[C@@H](OC(=O)C(C)C)[C@H](C)OC2=O)c1OCOC(C)=O` [Compound F83, (3S,6S,7R,8S)-3-(3-(acetoxymethoxy)-4-methoxypicolin-amido)-6-methyl-8-(naphthalen-1-ylmethyl)-4-oxo-1,5-dioxonan-7-yl isobutyrate], the pest or weed control at 100 ppm [1] is reported as 80 to 100%, the “Disease Control VENTIN 1DP” value [2] is reported as “A (80-100)” and the “Disease Control LEPTNO 1DP” value [3] is reported as “A (80-100)”.
`CCCCCO[C@@H]1[C@@H](Cc2ccc(Cl)cc2Cl)COC[C@H](NC(=O)c2nccc(OC)c2OCOC(=O)COCC)C(=O)O[C@H]1C` [Compound F122] was tested, and the pest or weed control at 100 ppm [1] was 80 to 100%, the “Disease Control VENTIN 1DP” value [2] was “A (80-100)” and the “Disease Control LEPTNO 1DP” value [3] was “A (80-100)”.
In the case of `COc1ccnc(C(=O)N[C@H]2COC[C@H](Cc3ccc(Cl)cc3Cl)[C@@H](OC(=O)C(C)C)[C@H](C)OC2=O)c1OC(C)=O` [Compound F73], the pest or weed control at 100 ppm [1] is reported as 80 to 100%.
Work on `COc1ccnc(C(=O)N[C@H]2COC[C@H](Cc3ccc(Cl)cc3Cl)[C@@H](OC(=O)C(C)C)[C@H](C)OC2=O)c1OCOC(C)=O` [Compound F110] yielded a pest or weed control at 100 ppm [1] of 80 to 100%.
